Laboratory results taken from US8410161B2, “Thioxanthone ring system derivatives” (National Defense Medical Center, priority 2010, dated 2013).

Key:
A control cell lines = test: MTT assay, A control cell lines (lung cancer cell); format: cell-based
From the text: Please refer to Table 1 and FIGS. 4A-4C. According to a MTT assay (Table 1), various cell viabilities of the A control cell lines can be obtained and illustrated in FIG. 4A while the compounds No. 2˜30 are used to treat A control cell lines, wherein A control cell lines are lung cancer cell.

A3 cell lines = test: MTT assay, A3 cell lines (lung cancer stem cell); format: cell-based
From the text: Please to FIG. 4B, various cell viabilities of the A3 cell lines can be obtained through the MTT assay and illustrated in FIG. 4B while the compounds No. 1˜30 are used to treat A3 cell lines, wherein A3 cell lines are lung cancer stem cell.

[1] = MTT assay, HEL299 fibroblast; format: cell-based; conditions: human
From the text: Please refer to FIG. 4C, various cell viabilities of the HEL299 cell lines can be obtained through the MTT assay while the compounds No. 1˜30 are used to treat HEL299 cell lines, wherein HEL299 cell lines are fibroblast.

HL-60(TB) = test: NCI in vitro DTP human cell line screen, HL-60(TB); format: cell-based; conditions: Leukemia, 1.00E−5 Molar
Procedure: (§1) Then, a cell toxicity assay of the cancer lines made by National Cancer Institute will be discussed as follows. The cell toxicity assay is performed by choosing ten compounds (existing certification numbers) from the 59 compounds disclosed in the present invention first.

K562 = test: NCI in vitro DTP human cell line screen, K562; format: cell-based; conditions: Leukemia, 1.00E−5 Molar
Procedure: as §1

MOLT-4 = test: NCI in vitro DTP human cell line screen, MOLT-4; format: cell-based; conditions: Leukemia, 1.00E−5 Molar
Procedure: as §1

RPMI-8226 = test: NCI in vitro DTP human cell line screen, RPMI-8226; format: cell-based; conditions: Leukemia, 1.00E−5 Molar
Procedure: as §1

SR = test: NCI in vitro DTP human cell line screen, SR; format: cell-based; conditions: Leukemia, 1.00E−5 Molar
Procedure: as §1

EKVX = test: NCI in vitro DTP human cell line screen, EKVX; format: cell-based; conditions: Non-Small Cell Lung Cancer, 1.00E−5 Molar
Procedure: as §1

NCI-H226 = test: NCI in vitro DTP human cell line screen, NCI-H226; format: cell-based; conditions: Non-Small Cell Lung Cancer, 1.00E−5 Molar
Procedure: as §1

NCI-H23 = test: NCI in vitro DTP human cell line screen, NCI-H23; format: cell-based; conditions: Non-Small Cell Lung Cancer, 1.00E−5 Molar
Procedure: as §1

NCI-H322M = test: NCI in vitro DTP human cell line screen, NCI-H322M; format: cell-based; conditions: Non-Small Cell Lung Cancer, 1.00E−5 Molar
Procedure: as §1

NCI-H460 = test: NCI in vitro DTP human cell line screen, NCI-H460; format: cell-based; conditions: Non-Small Cell Lung Cancer, 1.00E−5 Molar
Procedure: as §1

NCI-H522 = test: NCI in vitro DTP human cell line screen, NCI-H522; format: cell-based; conditions: Non-Small Cell Lung Cancer, 1.00E−5 Molar
Procedure: as §1

COLO 205 = test: NCI in vitro DTP human cell line screen, COLO 205; format: cell-based; conditions: Colon Cancer, 1.00E−5 Molar
Procedure: as §1

HCC-2998 = test: NCI in vitro DTP human cell line screen, HCC-2998; format: cell-based; conditions: Colon Cancer, 1.00E−5 Molar
Procedure: as §1

HCT-116 = test: NCI in vitro DTP human cell line screen, HCT-116; format: cell-based; conditions: Colon Cancer, 1.00E−5 Molar
Procedure: as §1

HCT-15 = test: NCI in vitro DTP human cell line screen, HCT-15; format: cell-based; conditions: Colon Cancer, 1.00E−5 Molar
Procedure: as §1

HT29 = test: NCI in vitro DTP human cell line screen, HT29; format: cell-based; conditions: Colon Cancer, 1.00E−5 Molar
Procedure: as §1

KM12 = test: NCI in vitro DTP human cell line screen, KM12; format: cell-based; conditions: Colon Cancer, 1.00E−5 Molar
Procedure: as §1

SW-620 = test: NCI in vitro DTP human cell line screen, SW-620; format: cell-based; conditions: Colon Cancer, 1.00E−5 Molar
Procedure: as §1

SF-268 = test: NCI in vitro DTP human cell line screen, SF-268; format: cell-based; conditions: CNS Cancer, 1.00E−5 Molar
Procedure: as §1

SF-295 = test: NCI in vitro DTP human cell line screen, SF-295; format: cell-based; conditions: CNS Cancer, 1.00E−5 Molar
Procedure: as §1

SF-539 = test: NCI in vitro DTP human cell line screen, SF-539; format: cell-based; conditions: CNS Cancer, 1.00E−5 Molar
Procedure: as §1

SNB-19 = test: NCI in vitro DTP human cell line screen, SNB-19; format: cell-based; conditions: CNS Cancer, 1.00E−5 Molar
Procedure: as §1

SNB-75 = test: NCI in vitro DTP human cell line screen, SNB-75; format: cell-based; conditions: CNS Cancer, 1.00E−5 Molar
Procedure: as §1

U251 = test: NCI in vitro DTP human cell line screen, U251; format: cell-based; conditions: CNS Cancer, 1.00E−5 Molar
Procedure: as §1

LOX IMVI = test: NCI in vitro DTP human cell line screen, LOX IMVI; format: cell-based; conditions: Melanoma, 1.00E−5 Molar
Procedure: as §1

MALME-3M = test: NCI in vitro DTP human cell line screen, MALME-3M; format: cell-based; conditions: Melanoma, 1.00E−5 Molar
Procedure: as §1

M14 = test: NCI in vitro DTP human cell line screen, M14; format: cell-based; conditions: Melanoma, 1.00E−5 Molar
Procedure: as §1

MDA-MB-435 = test: NCI in vitro DTP human cell line screen, MDA-MB-435; format: cell-based; conditions: Melanoma, 1.00E−5 Molar
Procedure: as §1

SK-MEL-2 = test: NCI in vitro DTP human cell line screen, SK-MEL-2; format: cell-based; conditions: Melanoma, 1.00E−5 Molar
Procedure: as §1

SK-MEL-28 = test: NCI in vitro DTP human cell line screen, SK-MEL-28; format: cell-based; conditions: Melanoma, 1.00E−5 Molar
Procedure: as §1

SK-MEL-5 = test: NCI in vitro DTP human cell line screen, SK-MEL-5; format: cell-based; conditions: Melanoma, 1.00E−5 Molar
Procedure: as §1

UACC-257 = test: NCI in vitro DTP human cell line screen, UACC-257; format: cell-based; conditions: Melanoma, 1.00E−5 Molar
Procedure: as §1

UACC-62 = test: NCI in vitro DTP human cell line screen, UACC-62; format: cell-based; conditions: Melanoma, 1.00E−5 Molar
Procedure: as §1

IGROV1 = test: NCI in vitro DTP human cell line screen, IGROV1; format: cell-based; conditions: Ovarian Cancer, 1.00E−5 Molar
Procedure: as §1

OVCAR-3 = test: NCI in vitro DTP human cell line screen, OVCAR-3; format: cell-based; conditions: Ovarian Cancer, 1.00E−5 Molar
Procedure: as §1

OVCAR-4 = test: NCI in vitro DTP human cell line screen, OVCAR-4; format: cell-based; conditions: Ovarian Cancer, 1.00E−5 Molar
Procedure: as §1

OVCAR-5 = test: NCI in vitro DTP human cell line screen, OVCAR-5; format: cell-based; conditions: Ovarian Cancer, 1.00E−5 Molar
Procedure: as §1

OVCAR-8 = test: NCI in vitro DTP human cell line screen, OVCAR-8; format: cell-based; conditions: Ovarian Cancer, 1.00E−5 Molar
Procedure: as §1

NCI/ADR-RES = test: NCI in vitro DTP human cell line screen, NCI/ADR-RES; format: cell-based; conditions: Ovarian Cancer, 1.00E−5 Molar
Procedure: as §1

SK-OV-3 = test: NCI in vitro DTP human cell line screen, SK-OV-3; format: cell-based; conditions: Ovarian Cancer, 1.00E−5 Molar
Procedure: as §1

786-0 = test: NCI in vitro DTP human cell line screen, 786-0; format: cell-based; conditions: Renal Cancer, 1.00E−5 Molar
Procedure: as §1

ACHN = test: NCI in vitro DTP human cell line screen, ACHN; format: cell-based; conditions: Renal Cancer, 1.00E−5 Molar
Procedure: as §1

CAKI-1 = test: NCI in vitro DTP human cell line screen, CAKI-1; format: cell-based; conditions: Renal Cancer, 1.00E−5 Molar
Procedure: as §1

RXF 393 = test: NCI in vitro DTP human cell line screen, RXF 393; format: cell-based; conditions: Renal Cancer, 1.00E−5 Molar
Procedure: as §1

SN12C = test: NCI in vitro DTP human cell line screen, SN12C; format: cell-based; conditions: Renal Cancer, 1.00E−5 Molar
Procedure: as §1

TK-10 = test: NCI in vitro DTP human cell line screen, TK-10; format: cell-based; conditions: Renal Cancer, 1.00E−5 Molar
Procedure: as §1

UO-31 = test: NCI in vitro DTP human cell line screen, UO-31; format: cell-based; conditions: Renal Cancer, 1.00E−5 Molar
Procedure: as §1

PC-3 = test: NCI in vitro DTP human cell line screen, PC-3; format: cell-based; conditions: Prostate Cancer, 1.00E−5 Molar
Procedure: as §1

DU145 = test: NCI in vitro DTP human cell line screen, DU145; format: cell-based; conditions: Prostate Cancer, 1.00E−5 Molar
Procedure: as §1

MCF7 = test: NCI in vitro DTP human cell line screen, MCF7; format: cell-based; conditions: Breast Cancer, 1.00E−5 Molar
Procedure: as §1

MDA-MB-231/ATCC = test: NCI in vitro DTP human cell line screen, MDA-MB-231/ATCC; format: cell-based; conditions: Breast Cancer, 1.00E−5 Molar
Procedure: as §1

HS 578-T = test: NCI in vitro DTP human cell line screen, HS 578-T; format: cell-based; conditions: Breast Cancer, 1.00E−5 Molar
Procedure: as §1

BT-549 = test: NCI in vitro DTP human cell line screen, BT-549; format: cell-based; conditions: Breast Cancer, 1.00E−5 Molar
Procedure: as §1

T-47D = test: NCI in vitro DTP human cell line screen, T-47D; format: cell-based; conditions: Breast Cancer, 1.00E−5 Molar
Procedure: as §1

MDA-MB-468 = test: NCI in vitro DTP human cell line screen, MDA-MB-468; format: cell-based; conditions: Breast Cancer, 1.00E−5 Molar
Procedure: as §1

60 cancer lines = test: NCI cell toxicity assay of 60 cancer lines, whole panel summary; format: cell-based, human; conditions: mean over all cell lines; 1.00E−5 Molar
Procedure: as §1

Cc1cc(C)cc(Sc2ccc3c(=O)c4ccccc4sc3c2Cl)c1 [No. 14, 4-Chloro-3-(3,5-dimethylphenylthio)-9H-thioxanthen-9-one]
cell viabilities of A control cell lines (MTT assay) (A control cell lines): 112 ± 8.03% | cell viabilities of A3 cell lines (MTT assay) (A3 cell lines): 113 ± 0.50% | viability [1]: 104 ± 9.21% | Growth Percent (HL-60(TB)): 99.82% | Growth Percent (K562): 100.94% | Growth Percent (MOLT-4): 99.59% | Growth Percent (RPMI-8226): 101.54% | Growth Percent (SR): 86.99% | Growth Percent (EKVX): 96.66% | Growth Percent (NCI-H226): 97.38% | Growth Percent (NCI-H23): 92.54% | Growth Percent (NCI-H322M): 116.93% | Growth Percent (NCI-H460): 105.72% | Growth Percent (NCI-H522): 91.47% | Growth Percent (COLO 205): 108.10% | Growth Percent (HCC-2998): 101.80% | Growth Percent (HCT-116): 93.28% | Growth Percent (HCT-15): 97.09% | Growth Percent (HT29): 95.28% | Growth Percent (KM12): 109.61% | Growth Percent (SW-620): 104.39% | Growth Percent (SF-268): 104.92% | Growth Percent (SF-295): 116.45% | Growth Percent (SF-539): 105.19% | Growth Percent (SNB-19): 108.53% | Growth Percent (SNB-75): 84.85% | Growth Percent (U251): 95.50% | Growth Percent (LOX IMVI): 96.06% | Growth Percent (MALME-3M): 102.39% | Growth Percent (M14): 107.60% | Growth Percent (MDA-MB-435): 99.38% | Growth Percent (SK-MEL-2): 100.30% | Growth Percent (SK-MEL-28): 117.96% | Growth Percent (SK-MEL-5): 104.23% | Growth Percent (UACC-257): 89.26% | Growth Percent (UACC-62): 96.19% | Growth Percent (IGROV1): 100.06% | Growth Percent (OVCAR-3): 121.13% | Growth Percent (OVCAR-4): 101.64% | Growth Percent (OVCAR-5): 98.39% | Growth Percent (OVCAR-8): 97.95% | Growth Percent (NCI/ADR-RES): 101.13% | Growth Percent (SK-OV-3): 103.14% | Growth Percent (786-0): 110.62% | Growth Percent (ACHN): 98.35% | Growth Percent (CAKI-1): 90.10% | Growth Percent (RXF 393): 114.27% | Growth Percent (SN12C): 101.79% | Growth Percent (TK-10): 103.30% | Growth Percent (UO-31): 87.22% | Growth Percent (PC-3): 97.92% | Growth Percent (DU145): 118.42% | Growth Percent (MCF7): 94.94% | Growth Percent (MDA-MB-231/ATCC): 106.25% | Growth Percent (HS 578-T): 103.67% | Growth Percent (BT-549): 105.50% | Growth Percent (T-47D): 100.87% | Growth Percent (MDA-MB-468): 110.63% | Growth Percent, Mean (60 cancer lines): 101.73%
